Data: patent US20250170132A1, “SALTS AND POLYMORPHIC FORMS OF MENIN INHIBITORS AND PHARMACEUTICAL COMPOSITIONS THEREOF” (Syndax Pharmaceuticals, Inc., priority 2023, published 2025)

How the values were obtained:
Format in all cases: physicochemical
[1] = Polymorph screen: anti-solvent addition
Description: (§1) X-ray powder diffraction (XRPD) • Instrument: Panalytical Empyrean • Parameters: X-Ray tube Cu (Kα radiation); Power: 45 kV×40 mA • Scanning range: 2 to 40 2θ (degree) • Step size: 0.01 degree • Scanning speed: 6.33 degree (20) per minute Thermogravimetric analysis (TGA) • Instrument: TA Instruments Discovery TGA • Parameters: Ramp 10° C. per minute, 25 to 300° C., 50 mL/min N2 sweep Differential scanning calorimetry (DSC) • Instrument: TA Instruments Discovery DSC • Parameters: Ramp 10° C. per minute, up to 300° C. Polarized light microscopy (PLM) • Instrument: Nikon Eclipse Ci POL • Camera: Nikon DS-Fi3 • Software: Nikon NIS Elements
Experiments using 10 different techniques including using techniques such as anti-solvent addition, solid vapor diffusion, liquid vapor diffusion, slurry (at RT and 50° C.), slow evaporation, polymer induced crystallization, thermal cycling, sonication, and wet grinding.
Obtained solids were tested by XRPD (Table 30).

[2] = Polymorph screen: solid vapor diffusion
Description: as §1
Solid vapor diffusion—About 30 mg API was transferred into 4 mL vials which are placed in 20 mL glass vials containing different solvents. The solids were tested by XRPD after 7-10 days (Table 31).

[3] = Polymorph screen: slurry at RT
Description: as §1
Slurry at RT—About 40 mg API was suspended and stirred in different solvents in 4 mL vials at RT. The solids in the slurry were characterized by XRPD after 5-7 days (Table 33).

[4] = Solution stability studies at accelerated conditions, counterion adduct (Impurity A); conditions: solution stability at accelerated conditions
Text: Compound A monocitrate monohydrate has at least two advantageously and unexpected characteristics. […] Second, in the manufacturing process, Compound A fumarate requires a separate slurrying step which results in a solvate with an organic solvent. Compound A monocitrate monohydrate salt is isolated directly from ethanol:water, no slurrying step is required. […] Additionally, the Compound A monocitrate forms a monohydrate instead of a solvate with one or more organic molecules.
Although this degradation pathway is more accelerated in solution it was also observed in the solid API. Formation of Impurity A was the reason why Compound A sesquifumarate API and drug product were stored at refrigerated temperatures.

CCN(C(=O)c1cc(F)ccc1Oc1cncnc1N1CC2(CCN(C[C@H]3CC[C@H](NS(=O)(=O)CC)CC3)CC2)C1)C(C)C [Compound A monocitrate monohydrate]
absence of this type of degradation: Degradation by reaction of counterion with the pyrimidine ring [4]
FB-2: Crystal Form ([3]; Diethylamine:EtOH 3:7)
Form A*: Crystal Form ([1]; solvent DMSO, antisolvent Benzene, *Loss of crystallinity)
Amorphous: Crystal Form ([3]; DMSO (SL→Gel))
Form A: Crystal Form ([1]; solvent DMA, antisolvent CPME) | Crystal Form ([1]; solvent DMA, antisolvent EtOAc) | Crystal Form ([1]; solvent DMA, antisolvent Toluene) | Crystal Form ([1]; solvent NMP, antisolvent IPAc) | Crystal Form ([2]; solid vapor diffusion, 1,4-dioxane, RT) | Crystal Form ([2]; solid vapor diffusion, 2-Methyl THF, RT) | Crystal Form ([2]; solid vapor diffusion, CHCl3, RT) | Crystal Form ([2]; solid vapor diffusion, CPME, 40° C.) | Crystal Form ([2]; solid vapor diffusion, DCM, RT) | Crystal Form ([2]; solid vapor diffusion, Dimethoxyethane, 40° C.) | Crystal Form ([2]; solid vapor diffusion, IPAc, RT) | Crystal Form ([2]; solid vapor diffusion, MEK, RT) | Crystal Form ([2]; solid vapor diffusion, MTBE, RT) | Crystal Form ([2]; solid vapor diffusion, THF, RT) | Crystal Form ([2]; solid vapor diffusion, Toluene, 40° C.) | Crystal Form ([3]; Acetone) | Crystal Form ([3]; Benzene) | Crystal Form ([3]; CHCl3) | Crystal Form ([3]; CPME) | Crystal Form ([3]; DMA:Benzene 1:9) | Crystal Form ([3]; DMA:CHCl3 1:9) | Crystal Form ([3]; DMA:EtOH 1:9) | Crystal Form ([3]; DMF:EtOAc 1:9) | Crystal Form ([3]; DMSO:IPAc 1:9) | Crystal Form ([3]; IPA) | Crystal Form ([3]; MIBK) | Crystal Form ([3]; MeOH:MeCN 9:1) | Crystal Form ([3]; NMP:IPA 1:9) | Crystal Form ([3]; THF:H2O (aw = 0.2)) | Crystal Form ([3]; THF:H2O (aw = 0.4)) | Crystal Form ([3]; THF:H2O (aw = 0.6)) | Crystal Form ([3]; THF:H2O (aw = 0.8)) | Crystal Form ([3]; Toluene)
